# Source: article PMC8234218, “In Vitro and In Vivo Efficacies of the Linear and the Cyclic Version of an All-D-Enantiomeric Peptide Developed for the Treatment of Alzheimer’s Disease” (International Journal of Molecular Sciences, 2021)
# Where two headings read alike, the source gives them in different places. Where a SMILES comes first, the peptide text is derived from it. [ ]: non-standard residue; d: D form.
# Columns and labels:
# [1] = Proteolytic stability in simulated gastric fluid (SGF); format: in vitro ADME
# Description: (§1) Both compounds have already been extensively studied with respect to their in vivo pharmacokinetic profiles. Here, we performed some additional test to investigate the proteolytic stability of the compounds in simulated gastric (SGF) and intestinal fluid (SIF) and human plasma and human liver microsomes. The experiments were performed as described previously. According to the guidelines of the European Pharmacopoeia 7.0, SGF and SIF were prepared. Plasma was purchased from Biotrend with K3-EDTA as an anticoagulant (Biotrend, Köln, Germany). Human liver microsomes were pooled from different donors and purchased from Sekisui XenoTech (Kansas City, KS, USA). In order to determine whether the compounds RD2D3 and cRD2D3 are stable or would be metabolized, 150 µM of each compound was incubated in triplicate for defined time points slightly shaking at 37 °C in the media described above (SGF and SIF: 4 and 8 h, plasma: 8, 24 and 48 h and microsomes: 8 and 24 h). Incubation was stopped by precipitating the proteins. For this, 3% trichloroacetic acid (w/v) was added to the respective sample under vortexing followed by a centrifugation step (14,000× g at 4 °C for 5 min). For analysis, supernatants containing the compounds were collected. The precipitated media without compound was used as a control and as reference for the quantification served each medium with compound where the reaction was stopped immediately by precipitating the proteins. All samples were analyzed by RP-HPLC as previously described.
# [2] = Body weight in i.p. treatment study; format: in vivo; conditions: Tg-SwDI mice, mean ± SEM; for Body weight before treatment: 11 months old, before 28 d i.p. osmotic minipump 8 mg/kg daily; for Body weight after treatment: after 28 d i.p. osmotic minipump 8 mg/kg daily
# Description: Eleven months old Tg-SwDI were treated for 28 d i.p. by use of an osmotic minipump (Alzet osmotic pumps, Modell 1004, Charles River, Wilmington, MS, USA) with a daily dosage of 8 mg/kg peptide (RD2D3 (n = 14) or cRD2D3 (n = 12)) in PBS (pH 7.4) or vehicle (Placebo (n = 13), PBS, pH 7.4). The minipumps and the i.p. application route have been used to achieve continuous application of the study drug. After surgery, mice were monitored daily the following three days and twice each week until the end of the treatment. A loss of body weight and severe conspicuities were defined as exclusion criteria. No mouse was affected by these exclusion criteria. During the last one and a half weeks of treatment, different behavioral tests (nesting behavior, marble burying, open field test and MWM) were conducted with all mice.
# [3] = Proteolytic stability in human plasma; format: in vitro ADME
# Description: as §1
# [4] = Proteolytic stability in human liver microsomes; format: in vitro ADME
# Description: as §1
# [5] = cited from earlier work
# Text: Our society is aging and, with it, the number of diseases of old age, especially dementias, are increasing. Alzheimer’s disease (AD) is a devastating neurodegenerative disorder and the most common form of dementia worldwide. Its clinical symptoms are considered to be disturbances of memory, language, spatial and temporal orientation and cognitive decline. The pathological hallmarks of the disease are characterized by neurodegeneration, intracellular depositions of neurofibrillary tangles and extracellular accumulations of amyloid-β (Aβ) plaques.
# [6] = molecular target: T1, Aβ(1-42) (Homo sapiens, UniProt P05067); test: SPR, D-peptide immobilized, Aβ(1-42) monomers as analyte; format: binding; conditions: D-peptide immobilized on series S CM-5 chip, Aβ(1-42) monomers analyte 0.0045-10 µM, 10 mM HEPES + 50 mM NaCl pH 7.4, 25 °C, steady-state Langmuir 1:1 fit (Fig. 1g), read-out: KD Aβ(1-42), D-peptide as ligand
# T1 construct: Synthetic Aβ(1-42) and (Gln^22, Asn^23)-Amyloid β-Protein (1-40) (D/I Aβ) with >95% purity were purchased; purchased Bachem (Bubendorf, Switzerland); host or cells: chemical synthesis
# T1 sequence (P05067 672-713): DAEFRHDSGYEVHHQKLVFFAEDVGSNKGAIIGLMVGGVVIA
# Description: The dissociation constant (KD) of RD2D3 and cRD2D3 binding to Aβ(1-42) and D/I Aβ was determined by SPR spectroscopy using a Biacore T200 instrument (Biacore, GE Healthcare, Uppsala, Sweden). Aβ(1-42) or D/I Aβ was used as the ligand, while RD2D3 and cRD2D3 were used as the analyte or vice versa.
# By using the compounds (RD2D3 and cRD2D3) as ligands, they were immobilized on two separate channels on a series S CM-5 sensor chip (Cytiva, GE Healthcare, Uppsala, Sweden) by amine coupling. Both flow cells on each channel were activated with a mixture of 50 mM N-hydroxysuccinimide (NHS) and 16.1 mM N-ethyl-N’-(dimethylaminopropyl)carbodiimide (EDC) (XanTec, Düsseldorf, Germany) for 7 min. The peptides were diluted to 50 µg/mL in 10 mM maleic acid pH 6 (AppliChem, Darmstadt, Germany) and injected over flow cell two of each channel to a final signal between 600 and 900 RU. After the peptides were immobilized, the ligand and reference flow cells of each channel were quenched by injecting 1 M ethanolamine pH 8.5 (XanTec, Düsseldorf, Germany) for 7 min. […] Aβ(1-42) or D/I Aβ were diluted in the running buffer to the following concentrations: 10 µM, 3.3 µM, 1.1 µM, 0.37 µM, 0.12 µM, […], 0.014 µM and 0.0045 µM. All samples were injected over the flow cells for 180 s, followed by a dissociation step of 600 s with running buffer. […]
smiles,measurement,setting,value
CC(C)C[C@@H](NC(=O)[C@@H](CCCNC(=N)N)NC(=O)[C@H](NC(=O)[C@@H](CCCNC(=N)N)NC(=O)[C@H]1CCCN1C(=O)[C@@H](CCCNC(=N)N)NC(=O)[C@@H](CCCNC(=N)N)NC(=O)[C@@H](CCCNC(=N)N)NC(=O)[C@@H](CCCNC(=N)N)NC(=O)[C@@H](CCCNC(=N)N)NC(=O)[C@@H](CCCNC(=N)N)NC(=O)[C@@H](CC(N)=O)NC(=O)[C@@H](Cc1c[nH]cn1)NC(=O)[C@H](NC(=O)[C@@H](Cc1c[nH]cn1)NC(=O)[C@@H](CC(C)C)NC(=O)[C@H](NC(=O)[C@H]1CCCN1)[C@H](C)O)[C@H](C)O)[C@H](C)O)C(=O)N[C@H](Cc1c[nH]cn1)C(=O)N[C@@H](C(=O)N[C@H](Cc1c[nH]cn1)C(=O)N[C@H](CCCNC(=N)N)C(=O)N[C@H](CC(N)=O)C(=O)N[C@H](CCCNC(=N)N)C(N)=O)[C@H](C)O [RD2D3] (H-[dP][dT][dL][dH][dT][dH][dN][dR][dR][dR][dR][dR][dR][dP][dR][dT][dR][dL][dH][dT][dH][dR][dN][dR]-NH2),"remaining at 4 h, 150 µM",[1]; simulated gastric fluid,100%
same,"remaining at 8 h, 150 µM",[1]; simulated gastric fluid,100%
same,Body weight before treatment,[2],33.2 ± 2.6 g
same,Body weight after treatment,[2],34.3 ± 0.6 g
same,"remaining at 8 h, 150 µM","[3]; human, plasma",84.7%
same,"remaining at 24 h, 150 µM","[3]; human, plasma",91.9%
same,"remaining at 48 h, 150 µM","[3]; human, plasma",93.7%
same,"remaining at 8 h, 150 µM","[4]; human, microsomes",81.9%
same,"remaining at 24 h, 150 µM","[4]; human, microsomes",78.2%
same,Terminal half-life (in plasma),"[5]; mouse, in vivo",2.3 h
same,Kd,[6],18.4 ± 6.5 µM
CC(C)C[C@H]1NC(=O)[C@@H](CCCNC(=N)N)NC(=O)[C@@H]([C@H](C)O)NC(=O)[C@@H](CCCNC(=N)N)NC(=O)[C@H]2CCCN2C(=O)[C@@H](CCCNC(=N)N)NC(=O)[C@@H](CCCNC(=N)N)NC(=O)[C@@H](CCCNC(=N)N)NC(=O)[C@@H](CCCNC(=N)N)NC(=O)[C@@H](CCCNC(=N)N)NC(=O)[C@@H](CCCNC(=N)N)NC(=O)[C@@H](CC(N)=O)NC(=O)[C@@H](Cc2c[nH]cn2)NC(=O)[C@@H]([C@H](C)O)NC(=O)[C@@H](Cc2c[nH]cn2)NC(=O)[C@@H](CC(C)C)NC(=O)[C@@H]([C@H](C)O)NC(=O)[C@H]2CCCN2C(=O)[C@@H](CCCNC(=N)N)NC(=O)[C@@H](CC(N)=O)NC(=O)[C@@H](CCCNC(=N)N)NC(=O)[C@@H](Cc2c[nH]cn2)NC(=O)[C@@H]([C@H](C)O)NC(=O)[C@@H](Cc2c[nH]cn2)NC1=O [cRD2D3] (cyclo([dH][dN][dR][dR][dR][dR][dR][dR][dP][dR][dT][dR][dL][dH][dT][dH][dR][dN][dR][dP][dT][dL][dH][dT])),"remaining at 4 h, 150 µM","[1]; simulated gastric fluid (SGF), simulated gastric fluid (Eur. Pharmacopoeia 7.0), 150 µM, 37 °C, 4 h, TCA precipitation, RP-HPLC, referenced to immediately stopped sample, mean of three independent experiments, read-out: Stability in SGF, 4 h",99.5%
same,"remaining at 8 h, 150 µM","[1]; simulated gastric fluid (SGF), simulated gastric fluid (Eur. Pharmacopoeia 7.0), 150 µM, 37 °C, 8 h, TCA precipitation, RP-HPLC, referenced to immediately stopped sample, mean of three independent experiments, read-out: Stability in SGF, 8 h",99.7%
same,Body weight before treatment,[2],35.1 ± 1.4 g
same,Body weight after treatment,[2],33.2 ± 1.0 g
same,"remaining at 8 h, 150 µM","[3]; human plasma (K3-EDTA), 150 µM, 37 °C, 8 h, TCA precipitation, RP-HPLC, mean of three independent experiments, read-out: Stability in human plasma, 8 h",91.8%
same,"remaining at 24 h, 150 µM","[3]; human plasma (K3-EDTA), 150 µM, 37 °C, 24 h, TCA precipitation, RP-HPLC, mean of three independent experiments, read-out: Stability in human plasma, 24 h",93.7%
same,"remaining at 48 h, 150 µM","[3]; human plasma (K3-EDTA), 150 µM, 37 °C, 48 h, TCA precipitation, RP-HPLC, mean of three independent experiments, read-out: Stability in human plasma, 48 h",92.4%
same,"remaining at 8 h, 150 µM","[4]; pooled human liver microsomes, 150 µM, 37 °C, 8 h, TCA precipitation, RP-HPLC, mean of three independent experiments, read-out: Stability in human liver microsomes, 8 h",89.2%
same,"remaining at 24 h, 150 µM","[4]; pooled human liver microsomes, 150 µM, 37 °C, 24 h, TCA precipitation, RP-HPLC, mean of three independent experiments, read-out: Stability in human liver microsomes, 24 h",73.6%
same,Brain concentrations relative to RD2D3,"[5]; C57BL/6 mice, i.v. and i.p. administration",four to five times higher
same,Terminal half-life (in plasma),"[5]; C57Bl/6 wild type mice, after i.v. and i.p. administration, ref 17 (b3)",58 h
same,Oral bioavailability,[5],high oral bioavailability
same,Kd,[6],5.63 ± 2.5 µM
